Reference: patent publication US5206014A, “Synthetic nonapeptide for use as an adjuvant” (Sclavo, S.p.A., priority 1987, dated 1993)

Assays:
Format in all cases: in vivo
[1] = system: primary response to polysaccharide of Streptococcus pneumoniae serotype 3 (SIII); experiment: Primary antibody response to thymo-independent antigen SIII, PFC/spleen in immunized mice; conditions: 500 U/kg intraperitoneally
Protocol: (§1) More particularly, the immunostimulating activity of peptides 163-171 TFA and 163-171.HCl were assayed in the antibody response to sheep's red blood compuscles, thymo-dependent antigens and in response to the polysaccharide of Streptococcus pneumoniae serotype 3 (SIII), a thymo-independent antigen having low immunogenicity by using the method of haemolysis of plaques described by Cunningham A. J. and Szenberg (Immunology, 14, 599, 1968).
(§2) According to the invention, therefore, anti-body secreting cells of Classes IgM and IgG are determined by isolating lymphocytes from the spleen of mice immunized with SRBC and SIII antigens and treated by various methods and with various doses of peptide 163-171.TFA and peptide 163-171.HCl. To this end use has been made with identical results of inbred male C3H/HeNCr1BR mice and male and female C3H/HeJ mice weighing about 25 g. According to the invention, SRBC and SIII antigens previously dissolved in phosphate buffer (PBS) were inoculated in the mice, intravenously and intraperitoneally respectively, at a concentration of 1-2×10^8 SRBC/0.2 ml of PBS and 0.5 μg/0.5 ml of PBS. […]
The adjuvant activity of peptide 163-171.TFA and of human IL-1-β were then determined as in Example 1 by using 25 μl of a 10% suspension of SIII antigen conjugated with SRBC by chromium chloride in PBS (Baker P. J. et al. Appl. Microbiol. 17, 422 (1969)). […]

[2] = system: primary antibody response to sheep's red corpuscles (SRBC), thymo-dependent antigen; experiment: Primary antibody response to SRBC, direct haemolysis plaque (PFC/spleen, IgM) in immunized mice
Protocol: as §1
The method consists in determining the number of cells which secrete antibodies specific to a given antigen. It consists in immunizing mice with the antigen to be assayed, placing lymphocytes obtained from the spleen of the immunized mice in contact with the same antigen, and finally in detecting the haemolysis plaques by adding complement.
Lysis zones (plaque-forming cells PFC) are observed at the place where the antigen-antibody reaction occurs, i.e. at each cell producing specific antibodies.
as §2
The slides, sealed at the edges with paraffin, were then incubated in a thermostat at 37° C. for one hour. At the end of this period, the plaques of direct haemolysis were counted using a light-contrast visor, indicating the number of lymphocytes secreting antibodies (PFC). The thus-detected antibodies were in Class IgM, specific to the primary antibody response. […]

[3] = system: secondary antibody response to SRBC; experiment: Secondary antibody response to SRBC, total PFC/spleen (IgM+IgG) in immunized mice; conditions: measured four days later, PBS control 29.992
Protocol: The number of IgG class antibody-secreting cells characteristic of the secondary response is determined, before the complement is added, by adding a direct rabbit antiserum against mouse immunoglobulins.
According to the invention, therefore, anti-body secreting cells of Classes IgM and IgG are determined by isolating lymphocytes from the spleen of mice immunized with SRBC and SIII antigens and treated by various methods and with various doses of peptide 163-171.TFA and peptide 163-171.HCl. To this end use has been made with identical results of inbred male C3H/HeNCr1BR mice and male and female C3H/HeJ mice weighing about 25 g. According to the invention, SRBC and SIII antigens previously dissolved in phosphate buffer (PBS) were inoculated in the mice, intravenously and intraperitoneally respectively, at a concentration of 1-2×10^8 SRBC/0.2 ml of PBS and 0.5 μg/0.5 ml of PBS.
Mice immunized with SRBC as in Example 1 hereinbefore were intraperitoneally re-inoculated four days after the first inoculation with a similar dose of SRBC antigens and simultaneously with 12, 36, 100 mg/kg peptide 163-171.TFA and 500 - 1000 - 2000 U/kg of human IL-1-β.
The immunostimulating activity of the peptide on the secondary response to SRBC was also determined by administering the same doses of peptide and human IL-1β but only with the first inoculation.
Four days after the second dose the mice were killed and the number of PFC/spleen was determined as in Example 1, after combining the complement with a rabbit serum against mouse immunoglobulin at a final dilution of 1:200.
^a The mice intravenously inoculated with 1-2 × 10^8 SRBC o
day -10 and were given a similar dose on day 0 and simultaneously treated
intraperitoneally with PBS (control) or with various doses of peptide
163-171.TFA or hu rIL1β. The total number of antiSRBC PFC was
measured four days after the second inoculation of antigen.
The procedure was the same as in Example 4, the antigen being intravenously inoculated together with preparations of peptide 163-171.TFA and 163-171.HCl (from 100 pg/kg to 100 μg/kg in PBS).

## hu rIL-1β: human interleukin 1β (Genzyme Corporation Boston), comparator adjuvant
[1]
  Statistical significance versus control of PFC/spleen, primary response to SIII (FIG. 5): non-significant
[2]; 4000 U/kg intraperitoneally
  Statistical significance versus control of PFC/spleen, primary response to SRBC (FIG. 1-B): non-significant
[2]; intraperitoneal, peptide 12-100 mg/kg, IL-1β 500-4000 U/kg, depending on the dose
  Effect on number of plaques/spleen, primary response to SRBC (FIGS. 1A, 1B): increase in the number of plaques/spleen
[2]; intravenous, response not specified
  Optimum intravenous dose: 0.0001 µg/kg
[3]; 500 U/kg intraperitoneally with second SRBC inoculum (day 0)
  Average of total anti-SRBC PFC-spleen (95% confidence limits): 59.841 (45.604-78.343) PFC-spleen
[3]; 1000 U/kg intraperitoneally with second SRBC inoculum (day 0)
  Average of total anti-SRBC PFC-spleen (95% confidence limits): 77.624 (61.502-97.499) PFC-spleen
[3]; 2000 U/kg intraperitoneally with second SRBC inoculum (day 0)
  Average of total anti-SRBC PFC-spleen (95% confidence limits): 100.000 (84.139-118.850) PFC-spleen
[3]; 4000 U/kg intraperitoneally with second SRBC inoculum (day 0)
  Average of total anti-SRBC PFC-spleen (95% confidence limits): 42.364 (29.853-59.979) PFC-spleen
